Reference: patent US20240199623A1 (ILDONG PHARMACEUTICAL CO., LTD., priority 2020, published 2024)
≈ marks a conversion by molar mass, not a printed value.

Columns and labels:
[1] = biological target: T1, Human recombinant PDE4C1 (Homo sapiens, UniProt Q08493); experiment: Human phosphodiesterase 4 (PDE4) inhibition, PDE4C1; assay type: biochemical; conditions: read-out: % inhibition range at 10 uM PDE4C1; 10 uM test compound
T1 construct: purchased BPS Bioscience; host or cells: insect Sf9 cells
Procedure: (§1) […] Human recombinant PDE4A1A, PDE4B 1, PDE4C1 and PDE4D2 are respectively expressed in each host cell (insect Sf9 cells, BPS Bioscience). Preincubation of 10 μM test compounds or vehicle was proceeded with 20 ng/ml PDE4A1A or 4 ng/ml PDE4B 1 or 8 ng/ml PDE4C1 or 5 ng/ml PDE4D2 enzyme in Tris-HCl buffer pH 7.2 for 15 minutes at 25° C. 100 nM fluorescein (FAM) labeled cAMP for another 30 minutes incubation period was added in order to initiate the enzymatic reaction and addition of IMAP binding solution was followed for its termination. Specifically, IMAP complexes with phosphate groups on nucleotide monophosphate generated from cyclic nucleotides through PDE activity. The amount of complex formed is determined by reading spectrofluorimetrical signal at 470 nm/525 nm.

[2] = biological target: T2, Human recombinant PDE4B 1 (Homo sapiens, UniProt Q07343); experiment: Human phosphodiesterase 4 (PDE4) inhibition, PDE4B 1; assay type: biochemical; conditions: read-out: % inhibition range at 10 uM PDE4B1; 10 uM test compound
T2 construct: purchased BPS Bioscience; host or cells: insect Sf9 cells
Procedure: as §1

[3] = biological target: T3, human wild type-CFTR (Homo sapiens, UniProt P13569); experiment: Cell-based YFP assay; set-up: expressed in transfected cells; host or cells: CHO-K1 (Chinese hamster ovary); conditions: CHO-K1 cells expressing human wild type-CFTR and YFP-H148Q/I152L; forskolin 20 μM = 100% activity; read-out: Cell-based YFP Assay (EC50) Concentration Range
Procedure, shortened: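 I⁻-driven YFP fluorescence quenching at 37 °C: 2 s baseline, addition of 140 mM iodide solution, then 14 s of readings at 0.4 s intervals. Cells were CHO-K1 expressing human wild-type CFTR plus YFP-H148Q/I152L. EC50 derived from averaged triplicates.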

[4] = biological target: T4, Human recombinant PDE4D2 (Homo sapiens, UniProt Q08499); experiment: Human phosphodiesterase 4 (PDE4) inhibition, PDE4D2; assay type: biochemical; conditions: read-out: % inhibition range at 10 uM PDE4D2; 10 uM test compound
T4 construct: purchased BPS Bioscience; host or cells: insect Sf9 cells
Procedure: as §1

[5] = biological target: T5, Human recombinant PDE4A1A (Homo sapiens, UniProt P27815); experiment: Human phosphodiesterase 4 (PDE4) inhibition, PDE4A1A; assay type: biochemical; conditions: read-out: % inhibition range at 10 uM PDE4A1A; 10 uM test compound
T5 construct: purchased BPS Bioscience; host or cells: insect Sf9 cells
Procedure: as §1

[6] = system: C57BL/6 female mice; experiment: Scopolamine induced tear volume reduction model; assay type: in vivo, mouse; conditions: scopolamine-injected mice, ophthalmic solution topically on both eyes 3 times a day, phenol red thread; average if evaluated twice
Procedure: Seven-week old C57BL/6 female mice were used.
Scopolamine hydrobromide was purchased from Sigma Aldrich (Cat No. S0929), dissolved in saline, and sterilized prior to use.
Zone-Quick phenol red thread was obtained from Menicon.
The test compounds used in this experiment were dissolved in PBS containing 1% of surfactant.
Scopolamine (0.2 ml of 2.5 mg/mL solution) was injected subcutaneously 3 times a day to induce a decrease in the tear volume in the mouse. At the same time, the ophthalmic solution of test compounds or vehicle were topically administered onto both eyes 3 times a day. Tear volume was measured by phenol red thread before dosing (basal level) and 1 hour after the last administration of scopolamine and ophthalmic solution. The results were obtained by measuring the length of the phenol red thread turning red by tears. The schedule of study is expressed as FIG. 1.
If the test compound was evaluated twice, the average value was used.

[7] = biological target: T3, human wild type-CFTR; experiment: Short-circuit current measurement; assay type: cell-based; set-up: expressed in transfected cells; conditions: FRT cells expressing human wild type-CFTR; Forskolin 20 μM signal used as 100% activity; read-out: Short-circuit current measurement (EC50) Concentration range
Source text: Forskolin (Tocris cat. #1099), CFTRinh-172 (Tocris cat. #3430), amphotericin B (Tocris cat. #6930), dimethyl sulfoxide (Sigma cat. #D4540), EVC4000 Multi-Channel V/I Clamp (World Precision Instruments, Sarasota, FL), PowerLab 4/35 (AD Instruments, Castle Hill, Australia), Labchart Pro 7, GraphPad Prism 5 (GraphPad Software, Inc.). Fisher rat thyroid (FRT) cells expressing human wild type-CFTR were provided by Dr. Alan Verkman (University of California, San Francisco) and grown in DMEM/F12 medium (1:1) supplemented with 10% FBS, 2 mM glutamine, 100 units/ml penicillin and 100 μg/ml streptomycin. Snapwell inserts containing CF TR-expressing FRT cells were mounted in Ussing chambers (Physiologic Instruments, San Diego, CA). […] Forskolin, test compounds, and CFTRinh-172 were added to the apical and basolateral bath solution. Apical membrane current and short-circuit current were measured with an EVC4000 Multi-Channel V/I Clamp (World Precision Instruments, Sarasota, FL) and recorded using PowerLab 4/35 (AD Instruments, Castle Hill, Australia). Data were collected and analyzed with ADInstruments acquisition software Labchart Pro 7 software. The sampling rate was 4 Hz.

[8] = Phosphate-buffered saline (PBS) solubility of compounds; assay type: physicochemical; conditions: aqueous buffer, thermodynamic from solid, PBS pH 7.5, 0.5 mg/mL, vortexed 90 min, filtered, LC-MS/MS, read-out: Solubility Range
Procedure: PBS solutions (pH 7.5) were prepared according to the following compositions and stored at 4° C. Test compounds were dissolved in PBS (pH 7.5) at 0.5 mg/mL and vortexed for 90 min. The PBS solution was sequentially filtered through a 0.45, 1.2, […] syringe filter. Concentration of test compounds were determined using LC-MS/MS with appropriate dilution of the samples.

T2 sequence (Q07343 whole entry): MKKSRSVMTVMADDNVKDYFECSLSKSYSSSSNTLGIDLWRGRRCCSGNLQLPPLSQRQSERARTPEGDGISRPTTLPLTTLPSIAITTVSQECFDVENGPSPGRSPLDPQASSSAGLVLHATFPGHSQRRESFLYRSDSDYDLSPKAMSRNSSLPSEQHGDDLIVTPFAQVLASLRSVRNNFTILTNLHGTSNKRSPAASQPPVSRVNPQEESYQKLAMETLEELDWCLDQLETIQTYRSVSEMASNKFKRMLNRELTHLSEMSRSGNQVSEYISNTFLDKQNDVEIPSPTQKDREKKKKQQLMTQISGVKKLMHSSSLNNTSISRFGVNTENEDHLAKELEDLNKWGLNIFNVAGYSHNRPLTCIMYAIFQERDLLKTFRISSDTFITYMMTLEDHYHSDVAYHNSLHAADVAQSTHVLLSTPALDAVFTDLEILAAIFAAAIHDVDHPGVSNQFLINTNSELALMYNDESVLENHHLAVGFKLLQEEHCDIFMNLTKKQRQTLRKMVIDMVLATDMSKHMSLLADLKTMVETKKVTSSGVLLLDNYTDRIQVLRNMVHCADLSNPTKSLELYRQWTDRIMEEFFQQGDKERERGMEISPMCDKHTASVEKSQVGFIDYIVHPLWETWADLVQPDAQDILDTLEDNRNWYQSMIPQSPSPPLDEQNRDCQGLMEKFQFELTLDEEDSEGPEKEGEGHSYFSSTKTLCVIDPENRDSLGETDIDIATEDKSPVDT
T3 sequence (P13569 whole entry): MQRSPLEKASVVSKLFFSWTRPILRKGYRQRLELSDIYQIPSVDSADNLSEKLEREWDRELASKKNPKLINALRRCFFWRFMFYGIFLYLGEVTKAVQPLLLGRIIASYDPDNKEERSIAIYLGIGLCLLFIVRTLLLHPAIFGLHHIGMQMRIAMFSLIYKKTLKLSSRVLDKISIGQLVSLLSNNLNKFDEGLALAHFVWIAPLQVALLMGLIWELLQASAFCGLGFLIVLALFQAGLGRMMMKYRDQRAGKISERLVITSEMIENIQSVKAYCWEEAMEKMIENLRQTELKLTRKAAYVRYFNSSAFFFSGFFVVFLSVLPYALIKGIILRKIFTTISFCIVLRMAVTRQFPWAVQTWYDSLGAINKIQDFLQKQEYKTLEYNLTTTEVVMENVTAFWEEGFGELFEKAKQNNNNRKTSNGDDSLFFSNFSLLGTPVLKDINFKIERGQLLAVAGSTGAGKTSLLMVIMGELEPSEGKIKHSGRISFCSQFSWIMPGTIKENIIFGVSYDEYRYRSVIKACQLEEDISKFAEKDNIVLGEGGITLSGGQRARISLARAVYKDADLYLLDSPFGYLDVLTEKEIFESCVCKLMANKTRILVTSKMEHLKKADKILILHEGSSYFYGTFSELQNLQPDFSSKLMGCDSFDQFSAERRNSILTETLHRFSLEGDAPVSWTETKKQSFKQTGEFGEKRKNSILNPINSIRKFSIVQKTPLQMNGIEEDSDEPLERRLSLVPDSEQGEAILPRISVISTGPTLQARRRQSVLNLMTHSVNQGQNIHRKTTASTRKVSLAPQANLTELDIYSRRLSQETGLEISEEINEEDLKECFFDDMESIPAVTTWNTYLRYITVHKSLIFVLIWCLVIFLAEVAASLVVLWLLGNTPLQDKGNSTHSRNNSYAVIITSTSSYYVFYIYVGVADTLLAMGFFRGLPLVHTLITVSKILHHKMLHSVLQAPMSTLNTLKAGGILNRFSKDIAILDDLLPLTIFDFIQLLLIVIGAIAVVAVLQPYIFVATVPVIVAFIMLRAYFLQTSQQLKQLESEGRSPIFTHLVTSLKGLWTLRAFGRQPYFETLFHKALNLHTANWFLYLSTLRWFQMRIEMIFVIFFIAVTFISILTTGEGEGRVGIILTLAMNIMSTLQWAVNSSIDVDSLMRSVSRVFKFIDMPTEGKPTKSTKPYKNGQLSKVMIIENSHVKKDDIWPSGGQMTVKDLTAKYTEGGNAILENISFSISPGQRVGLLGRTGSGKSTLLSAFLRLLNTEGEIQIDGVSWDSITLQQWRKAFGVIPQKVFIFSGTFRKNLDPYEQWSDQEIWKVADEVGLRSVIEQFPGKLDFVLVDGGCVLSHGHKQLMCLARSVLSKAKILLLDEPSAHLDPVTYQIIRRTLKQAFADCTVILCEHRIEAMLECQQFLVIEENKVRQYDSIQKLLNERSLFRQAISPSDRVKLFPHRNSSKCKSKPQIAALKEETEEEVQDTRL
T4 sequence (Q08499 303-809 limits assumed): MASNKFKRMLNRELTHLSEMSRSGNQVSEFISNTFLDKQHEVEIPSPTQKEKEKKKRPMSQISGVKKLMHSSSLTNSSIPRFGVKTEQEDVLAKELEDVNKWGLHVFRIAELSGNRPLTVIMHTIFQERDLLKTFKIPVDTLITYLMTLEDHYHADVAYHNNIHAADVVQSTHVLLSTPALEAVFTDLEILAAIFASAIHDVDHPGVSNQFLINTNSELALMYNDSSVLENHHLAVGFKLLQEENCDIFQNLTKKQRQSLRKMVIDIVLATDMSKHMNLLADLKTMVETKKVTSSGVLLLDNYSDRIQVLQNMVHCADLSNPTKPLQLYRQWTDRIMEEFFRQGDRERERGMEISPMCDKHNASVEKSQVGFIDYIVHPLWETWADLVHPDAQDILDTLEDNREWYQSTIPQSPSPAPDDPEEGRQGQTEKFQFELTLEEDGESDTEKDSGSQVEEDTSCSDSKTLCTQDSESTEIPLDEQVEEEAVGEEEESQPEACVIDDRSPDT
T1 sequence (Q08493 whole entry): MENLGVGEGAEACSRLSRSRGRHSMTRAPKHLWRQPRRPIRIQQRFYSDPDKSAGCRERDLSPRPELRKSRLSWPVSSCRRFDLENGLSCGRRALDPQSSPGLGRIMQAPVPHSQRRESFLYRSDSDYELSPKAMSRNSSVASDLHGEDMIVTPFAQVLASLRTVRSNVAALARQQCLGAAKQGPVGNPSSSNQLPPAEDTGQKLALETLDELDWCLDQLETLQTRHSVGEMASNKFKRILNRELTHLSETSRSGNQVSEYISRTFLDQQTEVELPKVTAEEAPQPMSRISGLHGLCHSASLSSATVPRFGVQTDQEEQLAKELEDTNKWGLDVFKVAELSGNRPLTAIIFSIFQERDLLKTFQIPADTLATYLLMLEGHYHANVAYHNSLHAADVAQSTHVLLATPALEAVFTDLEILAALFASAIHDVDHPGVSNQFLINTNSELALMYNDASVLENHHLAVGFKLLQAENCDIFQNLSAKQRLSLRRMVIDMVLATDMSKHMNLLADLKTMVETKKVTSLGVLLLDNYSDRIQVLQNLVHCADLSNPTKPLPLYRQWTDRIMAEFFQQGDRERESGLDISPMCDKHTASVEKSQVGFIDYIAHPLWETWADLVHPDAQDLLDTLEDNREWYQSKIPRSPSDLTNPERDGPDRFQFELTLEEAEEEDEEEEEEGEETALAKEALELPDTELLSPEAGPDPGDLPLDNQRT
T5 sequence (P27815 1-647 isoform P27815-4): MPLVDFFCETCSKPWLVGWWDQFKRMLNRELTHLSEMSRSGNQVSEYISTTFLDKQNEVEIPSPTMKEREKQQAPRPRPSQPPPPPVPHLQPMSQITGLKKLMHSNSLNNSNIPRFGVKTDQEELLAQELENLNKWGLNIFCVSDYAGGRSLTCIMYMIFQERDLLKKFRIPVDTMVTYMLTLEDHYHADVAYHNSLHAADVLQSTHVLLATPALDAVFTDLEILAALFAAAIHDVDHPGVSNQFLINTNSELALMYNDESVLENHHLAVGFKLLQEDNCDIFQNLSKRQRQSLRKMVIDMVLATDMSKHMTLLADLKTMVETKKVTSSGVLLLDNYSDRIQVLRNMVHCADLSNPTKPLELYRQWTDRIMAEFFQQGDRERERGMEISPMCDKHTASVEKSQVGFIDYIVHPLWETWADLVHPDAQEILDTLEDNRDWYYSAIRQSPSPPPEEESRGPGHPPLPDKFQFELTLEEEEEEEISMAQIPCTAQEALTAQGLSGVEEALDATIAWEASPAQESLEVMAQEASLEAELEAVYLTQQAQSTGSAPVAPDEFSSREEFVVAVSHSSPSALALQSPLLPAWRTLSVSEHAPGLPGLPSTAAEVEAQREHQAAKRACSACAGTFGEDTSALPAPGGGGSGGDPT

Compound	inhibition at 10 µM [1]	inhibition at 10 µM [2]	EC50 [3]	inhibition at 10 µM [4]	inhibition at 10 µM [5]	Ratio of tear volume (test compound to vehicle) [6]	EC50 [7]	solubility at 90 min [8]
COc1ccc(-c2ccnc3cc(C(=O)N4CCN(C(=O)c5cccs5)[C@@H](C)C4)nn23)cc1OC [Compound 352, (S)-(7-(3,4-dimethoxyphenyl)pyrazolo[1,5-a]pyrimidin-2-yl)(3-methyl-4-(thiophene-2-carbonyl)piperazin-1-yl) methanone]	> 80%	> 80%	< 200 nM	> 80%	> 80%			
COc1ccc(-c2ccnc3cc(C(=O)N4CCN(C(=O)c5ccccn5)[C@@H](C)C4)nn23)cc1OC [Compound 380, (S)-(7-(3,4-dimethoxyphenyl)pyrazolo[1,5-a]pyrimidin-2-yl) (3-methyl-4-picolinoylpiperazin-1-yl)methanone]	50 to 80%	> 80%	< 200 nM	> 80%	> 80%			
CCOc1ccc(C(=O)Nc2cc3nccc(-c4ccc(OC)c(OC)c4)n3n2)cc1 [Compound 287, N-(7-(3,4-dimethoxyphenyl)pyrazolo[1,5-a]pyrimidin-2-yl)-4-ethoxybenzamide]	< 50%	50 to 80%	200 to 2000 nM	50 to 80%	50 to 80%			
COC(=O)c1ccc(NC(=O)c2cc3nccc(-c4ccc(OC)c(OC)c4)n3n2)cc1OC [Compound 192, methyl 4-(7-(3,4-dimethoxyphenyl)pyrazolo [1,5-a]pyrimidine-2-carboxamido)-2-methoxybenzoate]	> 80%	> 80%	< 200 nM	> 80%	> 80%			
CCOc1ccc(NC(=O)c2cc3nccc(-c4ccc(OC)nc4)n3n2)cc1 [Compound 323, N-(4-ethoxyphenyl)-7-(6-methoxypyridin-3-yl) pyrazolo[1,5-a]pyrimidine-2-carboxamide]	< 50%	50 to 80%	≥ 2000 nM	< 50%	< 50%			
COc1ccc(-c2ccnc3cc(C(=O)N4CCN(Cc5c(F)cccc5F)CC4)nn23)cc1OC [Compound 212, (4-(2,6-difluorobenzyl)piperazin-1-yl)(7-(3,4-dimethoxyphenyl)pyrazolo [1,5-a]pyrimidin-2-yl)methanone]			< 200 nM			1.43	≥ 2000 nM	0.1 to 10 µg/mL (≈ 0.203 to 20.3 µM)
COC(=O)C12CC(NC(=O)c3cc4nccc(-c5ccc(OC)c(OC)c5)n4n3)(C1)C2 [Compound 36, methyl 3-(7-(3,4-dimethoxyphenyl)pyrazolo[1,5-a]pyrimidine-2-carboxamido)bicyclo[1.1.1]pentane-1-carboxylate]			200 to 2000 nM			1.23	≥ 2000 nM	0.1 to 10 µg/mL (≈ 0.237 to 23.7 µM)
COc1ccc(-c2ccnc3cc(C(=O)Nc4ccc(N5CCC6(CC5)OCCO6)cc4)nn23)cc1OC [Compound 274, N-(4-(1,4-dioxa-8-azaspiro[4.5]decan-8-yl)phenyl)-7-(3,4-dimethoxyphenyl)pyrazolo [1,5-a]pyrimidine-2-carboxamide]			< 200 nM			1.07	< 200 nM	< 0.1 µg/mL
CCOc1ccc(NC(=O)c2cc3nccc(-c4ccc(OC)c(OC)c4)n3n2)cc1 [Compound 3, 7-(3,4-dimethoxyphenyl)-N-(4-ethoxyphenyl)pyrazolo[1,5-a]pyrimidine-2-carboxamide]			< 200 nM			1.20	< 200 nM	< 0.1 µg/mL
COc1ccc(-c2ccnc3cc(C(=O)Nc4ccc(C(=O)N5CCN(C)CC5)cc4F)nn23)cc1OC [Compound 158, 7-(3,4-dimethoxyphenyl)-N-(2-fluoro-4-(4-methylpiperazine-1-carbonyl)phenyl)pyrazolo[1,5-a]pyrimidine-2-carboxamide]			< 200 nM			1.40	< 200 nM	< 0.1 µg/mL
COc1ccc(-c2ccnc3cc(C(=O)Nc4ccc(NC(=O)CNC(=O)OC(C)(C)C)cc4)nn23)cc1OC [Compound 280, tert-butyl (2-((4-(7-(3,4-dimethoxyphenyl)pyrazolo [1,5-a]pyrimidine-2-carboxamido)phenyl)amino)-2-oxoethyl)carbamate]			< 200 nM			1.32	< 200 nM	< 0.1 µg/mL
COc1ccc(-c2ccnc3cc(C(=O)NC45CCC(C(=O)O)(CC4)CC5)nn23)cc1OC [Compound 149, 4-(7-(3,4-dimethoxyphenyl)pyrazolo[1,5-a]pyrimidine-2-carboxamido)bicyclo[2.2.2]octane-1-carboxylic acid]			200 to 2000 nM			1.26	≥ 2000 nM	> 10 µg/mL
COc1ccc(-c2ccnc3cc(C(=O)Nc4ccc(C(=O)N5CCN(C(C)C)CC5)cc4)nn23)cc1OC [Compound 159, 7-(3,4-dimethoxyphenyl)-N-(4-(4-isopropylpiperazine-1-carbonyl)phenyl)pyrazolo[1,5-a]pyrimidine-2-carboxamide]			200 to 2000 nM			2.11	200 to 2000 nM	0.1 to 10 µg/mL (≈ 0.189 to 18.9 µM)
COc1ccc(-c2ccnc3cc(C(=O)N4CCN(C(=O)c5c(F)c(F)c(F)c(F)c5F)[C@@H](C)C4)nn23)cc1OC [Compound 259, (S)-(7-(3,4-dimethoxyphenyl)pyrazolo[1,5-a]pyrimidin-2-yl) (3-methyl-4-(perfluorobenzoyl)piperazin-1-yl)methanone]			200 to 2000 nM			0.94	200 to 2000 nM	0.1 to 10 µg/mL (≈ 0.174 to 17.4 µM)
COc1ccc(NC(=O)c2cc3nccc(-c4ccc(OC)c(OC)c4)n3n2)cc1 [Compound 6, 7-(3,4-dimethoxyphenyl)-N-(4-methoxyphenyl)pyrazolo[1,5-a]pyrimidine-2-carboxamide]			< 200 nM			1.58	< 200 nM	< 0.1 µg/mL
